Drawing on a melting point compilation (Tetko et al.), this text covers melting point for 111 compounds.

In general, melting point refers to the temperature, or range, at which the solid turns liquid.

Regarding `CN1C(=O)Cc2cc(Br)ccc21`, the melting point is 132 to 133 °C. With `Cc1cscc1S(=O)(=O)c1ccc(Cl)cc1` the figure was 102 to 104 °C; with `CNC(C)Cc1ccc(O)cc1` (stereo unspecified), 161 °C. With `CCCCCCCCC=CCCCCCCCC(=O)OC` the figure was 9.5 °C; with `O=C(CO)[C@@H](O)[C@@H](O)[C@H](O)[C@H](O)CO`, 151 °C. As for `O=C1OC(c2ccccn2)Cc2ccccc21` (stereo unspecified), the figure is 156 °C; as for `O=C(O)CNCC(=O)O`, 248 °C; as for `COc1ccc(Br)c(C(N)=O)c1`, 160 °C. The compound `FC(F)(F)C(Cl)(Cl)C(F)(F)Cl` displayed a melting point of -4.3 °C.

For the compound `Cc1cc(C(=O)N2CCN(c3ccccc3)CC2)no1`, the melting point fell in the range of 101 to 103 °C. Compound `C=C(NC(C)=O)C(=O)OC` displayed a melting point of 50 °C. As for `Brc1nncs1`, the figure is 70 to 73 °C; as for `N#CC1=C(N)n2nc(C(F)(F)F)nc2NC1c1c(Cl)cccc1Cl` (stereo unspecified), 323 °C; as for `S=c1sc2nc3ccccc3nc2s1`, 180 °C. Compound `N=c1sc(C(=O)c2cccs2)nn1-c1c(Cl)cc(Cl)cc1Cl` displayed a melting point of 209 °C. As for `COc1ccc(CC(=O)O)cc1O`, the figure is 128 to 130 °C; as for `FC(F)(F)C(F)(F)C(F)(F)C(F)(F)C(F)(F)C(F)(F)C(F)(F)C(F)(F)C(F)(F)F`, -16 °C; as for `CC(=O)CC(=O)OCc1ccc([N+](=O)[O-])cc1`, 45 to 46.5 °C. As to `COC(=O)c1cc(Br)c(C)c(Br)c1`, the melting point was determined as 88 °C. As for `O=C(O)C=Cc1ccc(F)cc1`, the figure is 207 to 210 °C. As for `O=C(O)c1ccc(N2C(=O)C3ON=C(C(=O)c4ccc(Cl)cc4)C3C2=O)cc1` (stereo unspecified), the figure is 143 °C; as for `CC(C=CC=C(C)C=CC1(O)C(C)(C)CCCC1(C)O)=CC=CC=C(C)C=CC(=O)O` (stereo unspecified), 213 °C; as for `CC1(c2ccccc2)CC(C(=O)c2cc3ccccc3o2)C1` (stereo unspecified), 156 to 157 °C. As to `Nc1c(F)c(F)c(F)c(F)c1F`, the melting point is 35.5 °C. `COc1ccc(-c2ccccc2)cc1NC(=O)C(C(F)(F)F)C(F)(F)F` yielded a melting point of 211 °C.

As to `C#CC[C@H](NC(=O)OC(C)(C)C)C(=O)O`, the melting point was 85.5 °C. As for `CC(C)n1cc(C(N)=S)c(=O)n(Cc2ccccc2)c1=O`, the figure is 173 to 175 °C; as for `CCOc1nc2ccccc2c(=O)n1Cc1cccnc1`, 67 to 70 °C; as for `Fc1nc(Cl)c2[nH]cnc2n1`, 162 to 163 °C. With `CC(C)(C)OC(=O)N1CCCC(O)C1` (stereo unspecified) the figure was 68 °C.

In turn, `c1ccc(Sc2ccccc2)cc1` gave a melting point of -40 °C. As for `O=C(NCOC(=O)c1ccc(O)cc1)c1ccccc1`, the figure is 165 to 166 °C; as for `O=[N+]([O-])c1ccc(N=Nc2ccc(N(CCO)CCO)cc2Cl)cc1`, 190 °C. In turn, `Cc1nc(C#N)cs1` gave a melting point of 58 °C. As for `O=C(O)c1ccc2cc[nH]c2c1`, the figure is 248 to 254 °C.

Turning to `CCOP(=S)(OCC)SCn1c(=O)oc2cc(Cl)ccc21`, the melting point stood at 47.8 °C.

As for `N#Cc1cnc(N)s1`, the melting point came to 185 °C. Compound `O=C(O)c1cn(C2CC2)c2cc(Cl)c(F)cc2c1=O` yielded a melting point of 239 to 244 °C. With `COCCCl` the figure was -55 °C. With `C1CSC1` the figure was -73.2 °C; with `O=C(O)c1ccc(=O)[nH]c1`, 314 to 316 °C.

The compound `CC(=O)Oc1ccccc1C(=O)Oc1ccccc1C(=O)O` had a melting point of 159 °C. As for `CC12CCC3C(CCC4CC(=O)CCC43C)C1CC(=O)C2` (stereo unspecified), the figure is 163 °C. With `OC(c1c2ccccc2cc2ccccc12)C(F)(F)F` (stereo unspecified) the figure was 142 °C; with `Nc1cscc1S(=O)(=O)c1ccccc1`, 125 to 126 °C.

Regarding `CC=Cc1ccc(OCC)c(O)c1`, the melting point stood at 87 °C.

With `COC(=O)c1cccc(CBr)c1`, the melting point came out at 44 °C.

In turn, `CC(=O)Nc1nn(C(C)=O)c2ncccc12` displayed a melting point of 217 to 219 °C.

`N#Cc1cc(F)cc(Cl)c1` registered a melting point of 57 °C. With `CCOC(=O)c1[nH]c(C)c(Br)c1C`, the melting point was 142 °C. As for `CCCCCCNC(=O)COC(=O)c1ccccc1`, the figure is 130 °C. For the compound `Cc1c(C(=O)O)[nH]c2ccccc12`, the melting point lay in the range of 162 to 163 °C. For the compound `O=[N+]([O-])c1ccc(S(=O)(=O)Oc2ccccc2)cc1`, the melting point fell in the range of 114 to 116 °C.

With `COc1ccc2[nH]cc(CC(=O)O)c2c1`, the melting point lay within 148 to 150 °C. With `Nc1ccc2c(c1)C(=O)c1ccc(N)cc1C2=O` the figure was 325 °C. With `C#CC1(O)CCC2C3CC=C4CC(O)CCC4(C)C3CCC21C` (stereo unspecified) the figure was 248 °C; with `CCCC(C)I` (stereo unspecified), -50 °C; with `CN1C(=O)C(=NNC(N)=S)c2ccccc21`, 245 °C. `CC(C)(S)C(N)C(=O)O` (stereo unspecified) registered a melting point of 212 °C. `Nc1ccc(S(=O)(=O)c2ccc(NC(=O)CCC(=O)O)cc2)cc1` displayed a melting point of 157 °C. `c1ccc(OCc2nnc3n2NC(c2ccco2)S3)cc1` (stereo unspecified) returned a melting point of 102 °C.

Compound `O=c1c(Cl)c(Cl)cnn1Cc1ccccc1F` yielded a melting point of 110 to 112 °C. As for `Nc1cc(Cl)nc(N)n1`, the figure is 201 °C. As for `O=C(Cl)c1cc(-c2ccccc2)c(C(F)(F)F)s1`, the figure is 48 to 51 °C; as for `FC(F)(F)c1cc(Cl)c2cccc(Cl)c2n1`, 62 °C. `O=C(C(F)(F)F)C(F)(F)Cl` registered a melting point of -133 °C. With `Clc1ccc(SCSc2ccc(Cl)cc2)cc1` the figure was 47 °C; with `CC(O)(P(=O)(O)O)P(=O)(O)O`, 199 °C. With `Cn1cc(I)cn1` the figure was 61 to 67 °C; with `COc1cc(N=C=S)cc(OC)c1OC`, 65 °C. Compound `Cc1cc(S(=O)(=O)Cl)c(C)cc1Cl` showed a melting point of 49 °C. In turn, `Cc1ccc(S(=O)(=O)N2CCCN(S(=O)(=O)c3ccc(C)cc3)CCN(S(=O)(=O)c3ccc(C)cc3)CCC2)cc1` showed a melting point of 238 °C. As for `CCC(O)(CC)C1(C)CCC(C(=O)O)C(C)(C)O1` (stereo unspecified), the figure is 138 °C; as for `CN1C(=O)C(=NNc2c(Br)cc(Br)cc2Br)C(=O)N(C)C1=O`, 165 °C; as for `CCCCC(=O)N(Cc1ccc(-c2ccccc2-c2nnn[nH]2)cc1)C(C(=O)O)C(C)C` (stereo unspecified), 116 °C.

For `CCOC(=O)Cc1nc(O)cs1`, the melting point was 153 to 155 °C.

Compound `c1ccc2cc(SSc3ccc4ccccc4c3)ccc2c1` yielded a melting point of 140 °C. Compound `CC(CC1CCCCC1)CC1CCCCC1` returned a melting point of 0.6 °C. On to `O=C1C(=Cc2ccccc2)SC(=S)N1CN1CCCCC1`, for which the melting point came to 114 °C. With `CC(C)CC(C)(C)CO` the figure was -70 °C; with `CN(C)C(C)(C)C`, -90 °C. In the case of `Cc1sc2ncnc(Cl)c2c1C`, the melting point lay within 112 to 113 °C. `O=S1OCCO1` showed a melting point of -11 °C.

Turning to `O=C(C=Cc1ccc(F)cc1)C=Cc1ccc(F)cc1`, the melting point was 141 to 146 °C. The compound `CCCCCCN(C)C(=O)COC(=O)c1ccccc1` showed a melting point of 100 °C. Regarding `O=[N+]([O-])c1ncccc1Cl`, the melting point came to 91 °C. Turning to `O=C1Nc2ccccc2C=NC2CCCCC2N=Cc2ccccc2NC(=O)O1` (stereo unspecified), the melting point fell in the range of 253 to 255 °C. Compound `O=C(OCCOc1cc(OCCOC(=O)c2ccccc2)c([N+](=O)[O-])cc1[N+](=O)[O-])c1ccccc1` gave a melting point of 165 °C.

Turning to `COc1ccc2c(=O)cc(-c3ccccc3)oc2c1`, the melting point was found to be 110 °C.

In turn, `Cc1nc(C(=O)O)cs1` registered a melting point of 148 to 149 °C.

For the compound `O=c1c(Br)c(Br)cnn1-c1ccccc1`, the melting point fell in the range of 143 to 144 °C. As for `COc1ccc(CCN2CC(C(=O)O)CC2=O)cc1OC` (stereo unspecified), the figure is 127 to 131 °C. `COc1cc(CC(=O)O)ccc1Br` gave a melting point of 104 °C. `CC(C)(C)OC(=O)N[C@@H]1CC[C@H](C(=O)O)C1` gave a melting point of 112 °C. As for `CC12CCC3C(C(=O)CC4CC(O)CCC43C)C1CCC2=O` (stereo unspecified), the figure is 199 to 200 °C; as for `COc1cc(C(=O)c2ccc(Cl)cc2)c([N+](=O)[O-])cc1OC`, 142 °C; as for `O=C(OCCOC(=O)c1ccccc1)c1ccccc1`, 73.5 °C. With `Cn1nc2ccccc2c1C(=O)Cl` the figure was 89 to 90 °C; with `C=COC(=O)C(CC)CCCC` (stereo unspecified), -90 °C; with `CC1=NN(CN2CCOCC2)C(=O)/C1=N\Nc1ccc(C(=O)O)cc1`, 187 °C.

`CC(=O)OC12COC1CC(O)C1(C)C(=O)C(O)C3=C(C)C(O)CC(O)(C(OC(=O)c4ccccc4)C21)C3(C)C` (stereo unspecified) showed a melting point of 231 to 236 °C.

On to `CC12CCC(C(=C/O)/C1=N\NC(N)=O)C2(C)C` (stereo unspecified), for which the melting point is 205 to 206 °C. With `Nc1nc(S)nc(S)n1` the figure was 300 °C; with `O=C(O)Cc1ccc(F)c(F)c1`, 49 °C.

The compound `COC1CC2C3(C)CCCC2(COC3=O)C2C(OC(C)=O)CC3C(C)C(=O)C12C3O` (stereo unspecified) returned a melting point of 105 °C. `Cn1c(N)c(N=O)c(=O)[nH]c1=O` registered a melting point of 300 °C. As for `CC1(c2ccccc2)CC(C(=NO)c2cc3cc(Br)ccc3o2)C1` (stereo unspecified), the figure is 134 to 135 °C; as for `CN(C)C(=S)N(C)C`, 79.3 °C. As for `CCSc1nnc(NC(=O)C(F)(F)C(F)(F)C(F)(F)C(F)(F)C(F)(F)C(F)(F)C(F)(F)C(F)(F)F)s1`, the figure is 131 °C. As for `Nc1ccccc1/C=C/c1ccccc1`, the figure is 106 °C; as for `CCCCCCCOO`, 35.5 °C.
